20 molecules from patent US8487121B2, “Chromane derivatives as TRPV3 modulators” (Glenmark Pharmaceuticals S.A., priority 2007, dated 2013) can be followed below.

This experiment has as its target T1, Human TRPV3 (Homo sapiens, UniProt Q8NET8).
T1 construct: expressed in transfected cells; host or cells: CHO cells (G-418 selected)
T1 sequence (Q8NET8 1-790): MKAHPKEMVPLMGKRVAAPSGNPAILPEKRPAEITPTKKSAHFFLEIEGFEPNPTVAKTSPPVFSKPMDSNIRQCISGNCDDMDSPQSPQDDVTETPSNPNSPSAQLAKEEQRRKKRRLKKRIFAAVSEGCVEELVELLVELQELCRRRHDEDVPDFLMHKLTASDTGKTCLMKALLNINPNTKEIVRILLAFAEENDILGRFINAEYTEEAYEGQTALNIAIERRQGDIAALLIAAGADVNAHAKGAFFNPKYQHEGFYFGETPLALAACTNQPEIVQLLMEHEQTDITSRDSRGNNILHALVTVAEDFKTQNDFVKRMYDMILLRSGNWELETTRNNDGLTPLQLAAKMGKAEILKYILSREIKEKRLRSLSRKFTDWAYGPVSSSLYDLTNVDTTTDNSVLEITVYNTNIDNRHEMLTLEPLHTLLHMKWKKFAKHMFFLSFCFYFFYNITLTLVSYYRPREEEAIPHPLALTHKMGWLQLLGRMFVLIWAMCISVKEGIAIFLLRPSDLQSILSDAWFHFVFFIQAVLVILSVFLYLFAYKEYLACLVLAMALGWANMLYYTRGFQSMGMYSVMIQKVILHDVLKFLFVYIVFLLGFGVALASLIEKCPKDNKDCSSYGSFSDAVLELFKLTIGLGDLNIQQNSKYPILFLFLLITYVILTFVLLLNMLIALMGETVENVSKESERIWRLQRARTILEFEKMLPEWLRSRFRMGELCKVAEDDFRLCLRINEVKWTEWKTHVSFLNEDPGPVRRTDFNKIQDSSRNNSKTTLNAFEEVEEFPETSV
Briefly: 45Calcium uptake assay: inhibition of 2-APB induced cellular uptake of radioactive calcium. In kind it is cell-based. The following applies: human TRPV3 expressing CHO cells, 2-APB 500 μM; for inhibition at 1 µM: 1.0 μM compound, read-out: Percentage inhibition at 1.0 μM; for inhibition at 10 µM: 10.0 μM compound, read-out: Percentage inhibition at 10.0 μM. An excerpt: The illustrative examples of the present invention are screened for TRPV3 activity according to a modified procedure described in Toth, A. et al. Life Sciences (2003), 73, 487-498. The screening of the compounds can be carried out by other methods and procedures known to a person skilled in the art. Such screening methods may be found in Hu, H-Z., et al. J. Biol. Chem. (2004), 279, 35741-35748; Smith, G. D et al. Nature (2002), 418, 186-190 and Peier, A. M., et al. Science (2002), 296, 2046-2049.
Screening for TRPV3 Antagonist Using the ^45Calcium Uptake Assay:
The inhibition of TRPV3 receptor activation was followed as inhibition of 2-APB induced cellular uptake of radioactive calcium. Test compounds were dissolved in DMSO to prepare 20 mM stock and then diluted using plain medium with 0.1% BSA and 1.8 mM CaCl2 to get desired concentration. Final concentration of DMSO in the reaction was 0.5% (v/v). Human TRPV3 expressing CHO cells were grown in F-12 DMEM medium with 10% FBS, 1% penicillin-streptomycin solution, 400 μg/ml of G-418. Cells were seeded 24 h prior to the assay in 96 well plates so as to get ˜50,000 cells per well on the day of experiment. Cells were treated with test compounds for 10 minutes followed by addition of 2-APB at a final concentration of 500 μM and 5 μCi/ml ^45Ca^+2 for 4 minutes. Cells were washed and lysed using buffer containing 1% Triton X-100, 0.1% deoxycholate and 0.1% SDS. Radioactivity in the lysate was measured in Packardt Top count after addition of liquid scintillant.
Concentration response curves were plotted as a % of maximal response obtained in the absence of test antagonist. IC50 value was calculated from concentration response curve by nonlinear regression analysis using GraphPad PRISM software.
Percentage inhibition at concentrations of 1.0 μM and 10.0 μM are given in the table along with IC50 (nM) values for selected examples.

As a reminder, the inhibition is the change of the read-out against control, counted positive when it falls. With `COc1cccc(CCC(=O)NC2CC3(CCC3)Oc3cc(C)c(Cl)cc32)c1OC1CCCC1` (stereo not shown) [Example 49, N-(6-Chloro-7-methyl-3,4-dihydrospiro[chromene-2,1′-cyclobutan]-4-yl)-3-(2-cyclo-pentyloxy-3-methoxy)phenylpropanamide], the inhibition at 1 µM came out at 35.4% and the inhibition at 10 µM turned out to be 70.1%.

By IC50 is commonly meant the point on the concentration scale where inhibition reaches its midpoint. For the molecule `COc1cccc(CCC(=O)NC2CC3(CCC3)Oc3cccc(OCc4ccccc4)c32)c1OC1CCCC1` (stereo not shown) [Example 50, N-(5-Benzyloxy-3,4-dihydrospiro[chromene-2,1′-cyclobutan]-4-yl)-3-(2-cyclopentyloxy-3-methoxy)phenylpropanamide], the inhibition at 1 µM worked out at 52.8%, the inhibition at 10 µM stood at 77.6% and the half-inhibitory concentration (IC50) was in the range of 500 to 1000 nM.

As to `COc1cccc(CCC(=O)NC2CC3(CCC3)Oc3cccc(O)c32)c1OC1CCCC1` (stereo not shown) [Example 51, N-(5-Hydroxy-3,4-dihydrospiro[chromene-2,1′-cyclobutan]-4-yl)-3-(2-cyclopentyloxy-3-methoxy)phenylpropanamide], the inhibition at 1 µM came out at 37.1%, the inhibition at 10 µM came out at 86.7% and the IC50 lay within 1000 to 2000 nM.

For the molecule `COc1cccc(CCC(=O)NC2CC3(CCC3)Oc3cccc(OC)c32)c1OC1CCCC1` (stereo not shown) [Example 52, N-(3,4-Dihydrospiro[chromene-2,1′-cyclobutan]-5-methoxy-4-yl)-3-(2-cyclopentyloxy-3-methoxy)phenylpropanamide], the inhibition at 1 µM was determined as 39.6% and the inhibition at 10 µM came to 92.5%.

As for `Cc1cccc(CCC(=O)N[C@@H]2CC3(CCC3)Oc3ccc(Cl)cc32)c1OC1CCCC1` [Example 53, (4R)-6-Chloro-N-(3,4-dihydrospiro[chromene-2,1′-cyclobutan]-4-yl)-3-(2-cyclopentyloxy-3-methyl)phenylpropanamide], the inhibition at 1 µM is 61.9%, the inhibition at 10 µM is 91.4% and the IC50 was 500 to 1000 nM.

Regarding `Cc1cccc(CCC(=O)N[C@H]2CC3(CCC3)Oc3ccc(Cl)cc32)c1OC1CCCC1` [Example 54, (4S)-6-Chloro-N-(3,4-dihydrospiro[chromene-2,1′-cyclobutan]-4-yl)-3-(2-cyclopentyloxy-3-methyl)phenylpropanamide], the inhibition at 1 µM is 36.2% and the inhibition at 10 µM came out at 63.6%.

For the molecule `COc1cccc(CCC(=O)NC2CC3(CCC3)Oc3ccc(Cl)cc32)c1OCc1ccccc1` (stereo not shown) [Example 56, N-(6-Chloro-3,4-dihydrospiro[chromene-2,1′-cyclobutan]-4-yl)-3-(2-benzyloxy-3-methoxy)phenylpropanamide], the inhibition at 1 µM stood at 57.5% and the inhibition at 10 µM worked out at 87.5%.

On to `CC(C)Oc1c(CCC(=O)NC2CC3(CCC3)Oc3ccc(Cl)cc32)cccc1NS(C)(=O)=O` (stereo not shown) [Example 57, N-(6-Chloro-3,4-dihydrospiro[chromene-2,1′-cyclobutan]-4-yl)-3-{2-isopropoxy-3-[(methylsulfonyl)amino]phenyl}propanamide], for which the inhibition at 1 µM is 30.3% and the inhibition at 10 µM came out at 84.3%.

For `CC(C)Oc1c(CCC(=O)NC2CC3(CCC3)Oc3c(Cl)cccc32)cccc1NS(C)(=O)=O` (stereo not shown) [Example 58, N-(8-Chloro-3,4-dihydrospiro[chromene-2,1′-cyclobutan]-4-yl)-3-{2-isopropoxy-3-[(methylsulfonyl)amino]phenyl}propanamide], the inhibition at 1 µM came out at 61.7% and the inhibition at 10 µM was found to be 98.7%.

Take `COc1cccc(CCC(=O)NC2CC3(CCC3)Oc3c(Cl)cc(Cl)cc32)c1OC1CCCC1` (stereo not shown) [Example 59, N-(6,8-Dichloro-3,4-dihydrospiro[chromene-2,1′-cyclobutan]-4-yl)-3-(2-cyclopentyloxy-3-methoxy)phenylpropanamide]: the inhibition at 1 µM turned out to be 89.4%, the inhibition at 10 µM was determined as 96.3% and the IC50 was less than 500 nM.

In the case of `COc1cccc(CCC(=O)NC2CC3(CCC3)Oc3c(Cl)cc(Cl)cc32)c1OCCN(C)C` (stereo not shown) [Example 60, N-(6,8-dichloro-3,4-dihydrospiro[chromene-2,1′-cyclobutan]-4-yl)-3-{[2-(dimethylamino)ethoxy-3-methoxy]phenyl}propanamide], the inhibition at 1 µM worked out at 1.2% and the inhibition at 10 µM turned out to be 0%.

With `CCCOc1c(CCC(=O)NC2CC3(CCC3)Oc3c(Cl)cc(Cl)cc32)cccc1NS(C)(=O)=O` (stereo not shown) [Example 61, N-(6,8-dichloro-3,4-dihydrospiro[chromene-2,1′-cyclobutan]-4-yl)-3-{2-propoxy-3-[(methylsulfonyl)amino]phenyl}propanamide], the inhibition at 1 µM came out at 45.1% and the inhibition at 10 µM was determined as 93.8%.

`CC(C)Oc1ccc(NS(C)(=O)=O)cc1CCC(=O)NC1CC2(CCC2)Oc2c(Cl)cc(Cl)cc21` (stereo not shown) [Example 62, N-(6,8-Dichloro-3,4-dihydrospiro[chromene-2,1′-cyclobutan]-4-yl)-3-{2-isopropoxy-5-[(methylsulfonyl)amino]phenyl}propanamide]: the inhibition at 1 µM amounted to 13.5% and the inhibition at 10 µM amounted to 82.2%.

Take `CCCCOc1c(CCC(=O)NC2CC3(CCC3)Oc3c(Cl)cc(Cl)cc32)cccc1NS(C)(=O)=O` (stereo not shown) [Example 63, N-(6,8-Dichloro-3,4-dihydrospiro[chromene-2,1′-cyclobutan]-4-yl)-3-{2-butoxy-3-[(methylsulfonyl)amino]phenyl}propanamide]: the inhibition at 1 µM stood at 73.3% and the inhibition at 10 µM stood at 97%.

Turning to `CS(=O)(=O)Nc1cccc(CCC(=O)NC2CC3(CCC3)Oc3c(Cl)cc(Cl)cc32)c1OCC1CC1` (stereo not shown) [Example 64, N-(6,8-Dichloro-3,4-dihydrospiro[chromene-2,1′-cyclobutan]-4-yl)-3-{2-(cyclopropylmethoxy)-3-[(methylsulfonyl)amino]phenyl}propanamide], the inhibition at 1 µM is 37.6% and the inhibition at 10 µM amounted to 95.4%.

Consider `CC(C)Oc1c(CCC(=O)NC2CC3(CCC3)Oc3c(Cl)cc(Cl)cc32)cccc1NS(C)(=O)=O` (stereo not shown) [Example 65, N-(6,8-Dichloro-3,4-dihydrospiro[chromene-2,1′-cyclobutan]-4-yl)-3-{2-isopropoxy-3-[(methylsulfonyl)amino]phenyl}propanamide], for which the inhibition at 1 µM turned out to be 74.1%, the inhibition at 10 µM turned out to be 99.5% and the IC50 is 500 to 1000 nM.

For `O=C(CCc1cccc2ccccc12)NC1CC2(CCC2)Oc2ccc(Cl)cc21` (stereo not shown) [Example 66, N-(6-Chloro-3,4-dihydrospiro[chromene-2,1′-cyclobutan]-4-yl)-3-(1-naphthyl)propanamide], the inhibition at 1 µM was 44.6% and the inhibition at 10 µM amounted to 92.3%.

Take `COc1ccc2ccccc2c1CCC(=O)N[C@@H]1CC2(CCC2)Oc2ccc(Cl)cc21` [Example 67]: the inhibition at 1 µM is 17% and the inhibition at 10 µM stood at 84.7%.

For the molecule `COc1ccc2ccccc2c1CCC(=O)N[C@H]1CC2(CCC2)Oc2ccc(Cl)cc21` [Example 68], the inhibition at 1 µM was determined as 70.6%, the inhibition at 10 µM amounted to 91% and the IC50 is 500 to 1000 nM.

In the case of `COc1ccc(CCC(=O)N[C@@H]2CC3(CCC3)Oc3ccc(Cl)cc32)c2ccccc12` [Example 69, N-[(4R)-6-Chloro-3,4-dihydrospiro[chromene-2,1′-cyclobutan]-4-yl)-3-(4-methoxy)-1-naphthylpropanamide], the inhibition at 1 µM is 40.3% and the inhibition at 10 µM stood at 86.8%.
